The source of these data is the RepoRT retention time repository (doi:10.1016/j.jchromb.2020.122105).

Conditions in all cases: stereoisomer not certain
A short description of data set [1]: RP, Waters CORTECS T3, 100 × 2.1 mm, 2.7 µm, 0.3 mL/min, estimated dead time 0.73 min; A: water + 0.1% formic acid, pH 3; B: methanol + 0.1% formic acid, pH 3; gradient (min/%B) 0/5 5/5 25/100 30/100 30.1/5 35/5.
The nature of data set [2]: RP, Waters CORTECS T3, 100 × 2.1 mm, 2.7 µm, 0.3 mL/min, estimated dead time 0.73 min; A: water + 0.1% formic acid, pH 3; B: methanol + 0.1% formic acid, pH 3; gradient (min/%B) 0/0 5/0 25/100 30/100 30.1/0 35/0.
Data set [3] in a line: RP, Waters CORTECS T3, 100 × 2.1 mm, 2.7 µm, 0.2 mL/min, estimated dead time 1.1 min; A: water + 0.1% formic acid, pH 3; B: methanol + 0.1% formic acid, pH 3; gradient (min/%B) 0/0 1/0 6/5 30/100 35/100 35.1/0 40/0.
Data set [4] is described as follows: RP, Waters CORTECS T3, 100 × 2.1 mm, 2.7 µm, 0.15 mL/min, estimated dead time 1.5 min; A: water + 0.1% formic acid, pH 3; B: methanol + 0.1% formic acid, pH 3; gradient (min/%B) 0/0 1/0 6/5 30/100 35/100 35.1/0 40/0.
The nature of data set [5]: RP, Waters CORTECS T3, 100 × 2.1 mm, 2.7 µm, 0.3 mL/min, estimated dead time 0.73 min; A: water + 0.1% formic acid, pH 3; B: methanol + 0.1% formic acid, pH 3; gradient (min/%B) 0/0 1/0 6/5 30/100 35/100 35.1/0 40/0.
Assay in data set [6]: as above
This is another data set of the same source.

Data set [7] is described as follows: RP, Waters CORTECS T3, 100 × 2.1 mm, 2.7 µm, 0.1 mL/min, estimated dead time 2.2 min; A: water + 0.1% formic acid, pH 3; B: methanol + 0.1% formic acid, pH 3; gradient (min/%B) 0/5 5/5 25/95 25.1/100 35/100 35.1/5 45/5.
The nature of data set [8]: RP, Waters CORTECS T3, 100 × 2.1 mm, 2.7 µm, 0.15 mL/min, estimated dead time 1.5 min; A: water + 0.1% formic acid, pH 3; B: methanol + 0.1% formic acid, pH 3; gradient (min/%B) 0/5 5/5 25/95 25.1/100 35/100 35.1/5 45/5.
Data set [9] can be described thus: RP, Waters CORTECS T3, 100 × 2.1 mm, 2.7 µm, 0.25 mL/min, estimated dead time 0.88 min; A: water + 0.1% formic acid, pH 3; B: methanol + 0.1% formic acid, pH 3; gradient (min/%B) 0/5 5/5 25/95 25.1/100 35/100 35.1/5 45/5.
The nature of data set [10]: RP, Waters ACQUITY UPLC BEH C18, 100 × 2.1 mm, 1.7 µm, 0.1 mL/min, estimated dead time 2.2 min; A: water + 0.1% formic acid, pH 3; B: methanol + 0.1% formic acid, pH 3; gradient (min/%B) 0/5 5/5 25/100 30/100 30.1/5 35/5.
Data set [11] is described as follows: RP, Waters CORTECS T3, 100 × 2.1 mm, 2.7 µm, 0.2 mL/min, estimated dead time 1.1 min; A: water + 0.045% formic acid + 0.11% ammonium hydroxide, pH 7; B: methanol; gradient (min/%B) 0/5 5/5 25/95 25.1/100 35/100 35.1/5 45/5.
Data set [12] in a line: RP, Waters ACQUITY UPLC BEH C18, 100 × 2.1 mm, 1.7 µm, 0.1 mL/min, estimated dead time 2.2 min; A: water + 0.1% formic acid, pH 3; B: methanol + 0.1% formic acid, pH 3; gradient (min/%B) 0/5 5/5 25/95 25.1/100 35/100 35.1/5 45/5.
Assay in data set [13]: as above
This is another data set of the same source.

Data set [14] in a line: RP, Waters ACQUITY UPLC BEH C18, 100 × 2.1 mm, 1.7 µm, 0.1 mL/min, estimated dead time 2.2 min; A: water + 0.045% formic acid + 0.11% ammonium hydroxide, pH 7; B: methanol; gradient (min/%B) 0/5 5/5 25/95 25.1/100 35/100 35.1/5 45/5.
A short description of data set [15]: HILIC, Merck SeQuant ZIC-HILIC, 150 × 2.1 mm, 5 µm, 0.75 mL/min, estimated dead time 0.44 min; A: water + 10 mM ammonium formate, pH 6; B: 5% water + 95% acetonitrile + 10 mM ammonium formate, pH 6; gradient (min/%B) 0/95 5/95 20/57 25/57 30/95 40/95.
Data set [16] can be described thus: HILIC, Thermo Scientific Accucore HILIC, 100 × 2.1 mm, 2.6 µm, 0.5 mL/min, estimated dead time 0.44 min; A: water + 0.1% formic acid + 10 mM ammonium formate, pH 3; B: 5% water + 95% acetonitrile + 0.1% formic acid + 10 mM ammonium formate, pH 3; gradient (min/%B) 0/95 5/95 20/57 25/57 30/95 40/95.
A short description of data set [17]: HILIC, Merck SeQuant ZIC-HILIC, 150 × 2.1 mm, 5 µm, 0.75 mL/min, estimated dead time 0.44 min; A: water + 0.1% acetic acid + 10 mM ammonium acetate, pH 4; B: 5% water + 95% acetonitrile + 0.1% acetic acid + 10 mM ammonium acetate, pH 4; gradient (min/%B) 0/95 5/95 20/57 25/57 30/95 40/95.

For the compound `N[C@@H](Cc1cc(I)c(Oc2ccc(O)cc2)c(I)c1)C(=O)O` [3,5-DIIODO-L-THYRONINE], the LC retention time in [1] is 15.5 min; in data set [2] it was 16.1 min; in data set [3] it was 19.2 min; in [4], 20.4 min; in data set [5], 18 min; in data set [6], 18 min. The LC retention time in [7] is 19.9 min; in [8], 18.1 min; in data set [9], 16.4 min; in [10], 19.7 min; in data set [11] it was 17.2 min; in [12], 20.2 min. For the same compound, the LC retention time in data set [13] was 20.2 min; in [14], 20.4 min; in data set [15] it was 8.69 min; in data set [16], 8.63 min.
In the case of `CC(C)=CCNc1ncnc2nc[nH]c12` [N6-(DELTA2-ISOPENTENYL)-ADENINE], the LC retention time in data set [1] was 11.8 min; in [2] it was 12.8 min; in data set [3], 15.1 min; in data set [4], 16.5 min; in [5], 13.6 min; in [6] it was 13.6 min. The LC retention time was 17 min in data set [7]; 14.7 min in [8]; 12.6 min in data set [9]; 16.9 min in data set [10]; 16.9 min in data set [11]; 17.3 min in data set [12]. Moreover, the LC retention time in data set [13] is 17.3 min; in data set [14], 20.6 min; in data set [15], 0.64 min; in data set [17] it was 0.62 min; in data set [16], 0.92 min.
